Series [1] addresses T1, Polyunsaturated fatty acid lipoxygenase ALOX15 (Homo sapiens, UniProt P16050).
T1 sequence (P16050 whole entry): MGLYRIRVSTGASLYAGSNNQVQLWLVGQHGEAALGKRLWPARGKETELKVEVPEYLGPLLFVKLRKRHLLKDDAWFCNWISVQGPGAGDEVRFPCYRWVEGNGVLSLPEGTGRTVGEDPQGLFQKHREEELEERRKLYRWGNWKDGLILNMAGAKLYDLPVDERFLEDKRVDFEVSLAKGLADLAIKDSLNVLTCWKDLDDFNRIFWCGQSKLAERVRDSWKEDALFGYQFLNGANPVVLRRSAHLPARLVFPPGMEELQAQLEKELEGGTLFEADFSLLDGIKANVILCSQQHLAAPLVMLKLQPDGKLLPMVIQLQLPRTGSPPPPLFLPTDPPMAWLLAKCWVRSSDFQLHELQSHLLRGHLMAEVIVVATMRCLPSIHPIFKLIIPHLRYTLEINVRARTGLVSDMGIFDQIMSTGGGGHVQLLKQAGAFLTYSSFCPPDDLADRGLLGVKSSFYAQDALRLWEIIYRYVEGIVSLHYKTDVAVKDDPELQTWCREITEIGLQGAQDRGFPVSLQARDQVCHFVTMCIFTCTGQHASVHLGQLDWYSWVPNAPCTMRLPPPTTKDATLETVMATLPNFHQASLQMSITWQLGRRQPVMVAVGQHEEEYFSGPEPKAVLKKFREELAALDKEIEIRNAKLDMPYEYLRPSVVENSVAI
Description: (§4) Inhibition of 15-LOX-1 in human L1236 cells assessed as reduction in conversion of arachidonic acid to 15-HETE pre-incubated 5 min before arachidonic acid substrate addition by HPLC-UV spectroscopy

For series [2], the target named is T1, Polyunsaturated fatty acid lipoxygenase ALOX15. To be noted: l1236.
Description: as §4
The target is the same in series [3]. This is another data set of the same source.
Description: (§5) Inhibition of human 15-LOX-1 expressed in Sf9 cells assessed as reduction in conversion of arachidonic acid to 15-HETE pre-incubated 5 min before arachidonic acid substrate addition by HPLC-UV spectroscopy
The target is the same in series [4]. To be noted: sf9.
Description: as §5
Series [5] concerns the target Polyunsaturated fatty acid 5-lipoxygenase (Homo sapiens) (UniProt P09917). The series can be described thus: Inhibition of 5-LOX in calcium ionophore and arachidonic acid-stimulated purified human granulocytes assessed as reduction in LTB4 formation at 10 uM by HPLC-UV spectroscopy.
For series [6], the target named is Polyunsaturated fatty acid lipoxygenase ALOX12 (Homo sapiens) (UniProt P18054). The series can be described thus: Inhibition of human platelet 12-LOX assessed as reduction in conversion of arachidonic acid to […] at 10 uM pre-incubated 5 min before arachidonic acid substrate addition by HPLC-UV spectroscopy.
For series [7], the target named is T2, Cytochrome P450 3A4 (Homo sapiens, UniProt P08684). The series can be described thus: Inhibition of human CYP3A4. It counts as ADME.
For series [8], the target named is T3, Prostaglandin G/H synthase 1 (Ovis aries) (UniProt P05979).
T3 sequence (whole entry): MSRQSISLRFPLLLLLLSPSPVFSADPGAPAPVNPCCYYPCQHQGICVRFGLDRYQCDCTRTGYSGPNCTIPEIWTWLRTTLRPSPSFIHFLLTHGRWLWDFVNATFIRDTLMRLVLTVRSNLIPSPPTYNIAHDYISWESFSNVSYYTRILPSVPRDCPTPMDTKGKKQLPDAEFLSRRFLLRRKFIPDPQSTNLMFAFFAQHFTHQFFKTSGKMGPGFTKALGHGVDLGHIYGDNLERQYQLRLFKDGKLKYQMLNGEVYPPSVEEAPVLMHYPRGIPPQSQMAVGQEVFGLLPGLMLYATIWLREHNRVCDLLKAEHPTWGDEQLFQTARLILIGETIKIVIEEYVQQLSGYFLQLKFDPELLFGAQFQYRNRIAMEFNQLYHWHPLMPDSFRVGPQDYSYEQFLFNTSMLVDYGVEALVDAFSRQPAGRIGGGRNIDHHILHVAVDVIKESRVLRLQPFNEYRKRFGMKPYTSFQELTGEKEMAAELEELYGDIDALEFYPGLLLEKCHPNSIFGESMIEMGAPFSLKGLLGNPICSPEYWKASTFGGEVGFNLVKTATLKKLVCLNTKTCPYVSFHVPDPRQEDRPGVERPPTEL
The series can be described thus: Inhibition of ovine COX1 assessed as reduction in PGH2-derived PGF2alpha production at 10 uM by enzyme immunoassay.

Series [9] in a line: Protein binding in plasma (unknown origin). The note with it: read-out: PPB (converted). It counts as ADME, cell-free.
Series [10] concerns Escherichia coli. The series can be described thus: Genotoxicity in Escherichia coli by SOS/umu test. It is filed as toxicity, organism-based.
The target of series [11] is T2, Cytochrome P450 3A4. The series can be described thus: Inhibition of human CYP3A4 at 10 uM. It counts as ADME.
Series [12] concerns the target Voltage-gated inwardly rectifying potassium channel KCNH2 (Homo sapiens, UniProt Q12809). The series can be described thus: Inhibition of human ERG.
A short description of series [13]: Intrinsic clearance in human microsomes. It counts as ADME, Microsome.
Series [14] is described as follows: Aqueous solubility in pH 7.4 buffer. It counts as physicochemical.
Series [15] has as its system Caco-2. The series can be described thus: Permeability in human Caco2 cells. It counts as ADME, cell-based. For orientation: Caco-2 cells form a polarised layer with tight junctions and transporters.
The target of series [16] is CYP2D6 (Homo sapiens, UniProt P10635). The series can be described thus: Inhibition of human CYP2D6 at 10 uM. It is filed as ADME.
The target in series [17] is T4, Prostaglandin G/H synthase 2 (Homo sapiens) (UniProt P35354).
T4 sequence (whole entry): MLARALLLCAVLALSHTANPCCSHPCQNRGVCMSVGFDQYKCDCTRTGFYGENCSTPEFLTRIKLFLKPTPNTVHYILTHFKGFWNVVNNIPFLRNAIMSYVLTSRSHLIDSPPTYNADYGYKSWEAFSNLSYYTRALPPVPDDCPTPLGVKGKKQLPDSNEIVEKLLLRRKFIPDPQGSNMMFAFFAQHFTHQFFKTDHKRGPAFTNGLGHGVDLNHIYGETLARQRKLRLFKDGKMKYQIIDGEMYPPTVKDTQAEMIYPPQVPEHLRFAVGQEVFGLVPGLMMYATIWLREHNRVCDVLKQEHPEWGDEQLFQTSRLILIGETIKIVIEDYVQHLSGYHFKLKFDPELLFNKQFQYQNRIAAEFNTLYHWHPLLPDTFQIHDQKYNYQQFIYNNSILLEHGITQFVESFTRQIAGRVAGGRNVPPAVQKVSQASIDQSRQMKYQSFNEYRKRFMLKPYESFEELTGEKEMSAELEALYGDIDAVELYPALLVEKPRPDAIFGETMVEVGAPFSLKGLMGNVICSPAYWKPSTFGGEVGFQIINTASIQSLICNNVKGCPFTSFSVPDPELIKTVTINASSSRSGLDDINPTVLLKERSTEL
The series can be described thus: Inhibition of human recombinant COX2 assessed as reduction in PGH2-derived PGF2alpha production at 10 uM by enzyme immunoassay.

Series [18] in a line: Half life in human microsomes. It counts as ADME, Microsome.
For series [19], the target named is CYP2C19 (Homo sapiens, UniProt P33261). The series can be described thus: (§1) Inhibition of human CYP2C19 at 10 uM. It is filed as ADME.
Series [20] has as its target CYP2C9 (Homo sapiens, UniProt P11712). The series can be described thus: (§2) Inhibition of human CYP2C9 at 10 uM. It counts as ADME.
The target in series [21] is CYP1A2 (Homo sapiens, UniProt P05177). The series can be described thus: (§3) Inhibition of human CYP1A2 at 10 uM. It is filed as ADME.
The target of series [22] is T5, Cytochrome P450 2C19 (Homo sapiens, UniProt P33261). The series can be described thus: Inhibition of human CYP2C19. It is filed as ADME.
The target of series [23] is T6, Cytochrome P450 2C9 (Homo sapiens, UniProt P11712). The series can be described thus: Inhibition of human CYP2C9. It counts as ADME.
Series [24] is described as follows: Aqueous solubility in pH 2.0 buffer. It counts as physicochemical.
For series [25], the target named is T5, Cytochrome P450 2C19. The series is described as §1. To be noted: 10 µM. It is filed as ADME.
Series [26] has as its target T6, Cytochrome P450 2C9. The series is described as §2. It is filed as ADME. To be noted: 10 µM.
The nature of series [27]: Aqueous solubility in pH 10 buffer. It is filed as physicochemical.
The target of series [28] is Cytochrome P450 1A2 (Homo sapiens, UniProt P05177). The series is described as §3. The note with it: 10 µM. It is filed as ADME.

In brackets after ≈: the same amount, converted by molar mass. Activity calls are given as the source filed them.

21 compounds from ChEMBL document CHEMBL3603736, “3-Substituted pyrazoles and 4-substituted triazoles as inhibitors of human 15-lipoxygenase-1” (Bioorg Med Chem Lett, 2015) can be followed below.

T6 sequence (P11712 whole entry): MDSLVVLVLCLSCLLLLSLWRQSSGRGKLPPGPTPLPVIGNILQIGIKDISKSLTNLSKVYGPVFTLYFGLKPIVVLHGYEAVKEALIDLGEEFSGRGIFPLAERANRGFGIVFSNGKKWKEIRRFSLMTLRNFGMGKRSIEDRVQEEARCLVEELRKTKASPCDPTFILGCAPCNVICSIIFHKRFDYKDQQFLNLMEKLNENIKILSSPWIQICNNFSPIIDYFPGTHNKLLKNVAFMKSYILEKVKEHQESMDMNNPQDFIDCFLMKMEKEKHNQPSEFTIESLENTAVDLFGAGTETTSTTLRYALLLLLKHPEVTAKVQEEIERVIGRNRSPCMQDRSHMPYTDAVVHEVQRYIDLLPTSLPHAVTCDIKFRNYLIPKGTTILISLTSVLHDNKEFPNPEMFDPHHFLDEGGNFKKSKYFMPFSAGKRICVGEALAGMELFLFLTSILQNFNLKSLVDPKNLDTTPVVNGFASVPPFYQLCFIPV
T5 sequence (P33261 whole entry): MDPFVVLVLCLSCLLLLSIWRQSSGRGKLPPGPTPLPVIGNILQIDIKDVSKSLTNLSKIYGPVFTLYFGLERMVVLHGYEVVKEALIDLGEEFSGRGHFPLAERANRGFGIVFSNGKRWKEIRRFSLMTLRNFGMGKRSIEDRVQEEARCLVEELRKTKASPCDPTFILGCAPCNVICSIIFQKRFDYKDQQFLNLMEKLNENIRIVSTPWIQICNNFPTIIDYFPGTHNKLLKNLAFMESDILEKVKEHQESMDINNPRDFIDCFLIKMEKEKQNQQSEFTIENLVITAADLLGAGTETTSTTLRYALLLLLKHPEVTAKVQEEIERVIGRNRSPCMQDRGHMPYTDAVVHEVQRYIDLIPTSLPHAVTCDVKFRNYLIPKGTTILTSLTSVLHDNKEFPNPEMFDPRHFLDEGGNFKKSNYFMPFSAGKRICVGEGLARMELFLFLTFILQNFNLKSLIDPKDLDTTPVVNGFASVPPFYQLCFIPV
T2 sequence (P08684 whole entry): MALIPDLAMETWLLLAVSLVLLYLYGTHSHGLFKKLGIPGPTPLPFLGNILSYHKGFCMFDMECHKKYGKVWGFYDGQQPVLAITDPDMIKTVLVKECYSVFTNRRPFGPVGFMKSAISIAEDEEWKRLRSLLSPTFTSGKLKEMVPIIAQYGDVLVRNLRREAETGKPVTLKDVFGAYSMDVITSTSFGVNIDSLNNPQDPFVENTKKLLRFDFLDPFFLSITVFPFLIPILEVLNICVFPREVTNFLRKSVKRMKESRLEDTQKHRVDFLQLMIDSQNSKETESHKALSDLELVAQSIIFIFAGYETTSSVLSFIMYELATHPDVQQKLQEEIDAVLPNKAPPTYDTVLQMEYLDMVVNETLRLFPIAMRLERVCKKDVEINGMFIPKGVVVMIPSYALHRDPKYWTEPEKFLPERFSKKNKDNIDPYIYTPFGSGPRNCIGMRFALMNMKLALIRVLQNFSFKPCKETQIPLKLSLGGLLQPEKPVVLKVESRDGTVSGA
Chain of Voltage-gated inwardly rectifying potassium channel KCNH2 (Q12809 whole entry): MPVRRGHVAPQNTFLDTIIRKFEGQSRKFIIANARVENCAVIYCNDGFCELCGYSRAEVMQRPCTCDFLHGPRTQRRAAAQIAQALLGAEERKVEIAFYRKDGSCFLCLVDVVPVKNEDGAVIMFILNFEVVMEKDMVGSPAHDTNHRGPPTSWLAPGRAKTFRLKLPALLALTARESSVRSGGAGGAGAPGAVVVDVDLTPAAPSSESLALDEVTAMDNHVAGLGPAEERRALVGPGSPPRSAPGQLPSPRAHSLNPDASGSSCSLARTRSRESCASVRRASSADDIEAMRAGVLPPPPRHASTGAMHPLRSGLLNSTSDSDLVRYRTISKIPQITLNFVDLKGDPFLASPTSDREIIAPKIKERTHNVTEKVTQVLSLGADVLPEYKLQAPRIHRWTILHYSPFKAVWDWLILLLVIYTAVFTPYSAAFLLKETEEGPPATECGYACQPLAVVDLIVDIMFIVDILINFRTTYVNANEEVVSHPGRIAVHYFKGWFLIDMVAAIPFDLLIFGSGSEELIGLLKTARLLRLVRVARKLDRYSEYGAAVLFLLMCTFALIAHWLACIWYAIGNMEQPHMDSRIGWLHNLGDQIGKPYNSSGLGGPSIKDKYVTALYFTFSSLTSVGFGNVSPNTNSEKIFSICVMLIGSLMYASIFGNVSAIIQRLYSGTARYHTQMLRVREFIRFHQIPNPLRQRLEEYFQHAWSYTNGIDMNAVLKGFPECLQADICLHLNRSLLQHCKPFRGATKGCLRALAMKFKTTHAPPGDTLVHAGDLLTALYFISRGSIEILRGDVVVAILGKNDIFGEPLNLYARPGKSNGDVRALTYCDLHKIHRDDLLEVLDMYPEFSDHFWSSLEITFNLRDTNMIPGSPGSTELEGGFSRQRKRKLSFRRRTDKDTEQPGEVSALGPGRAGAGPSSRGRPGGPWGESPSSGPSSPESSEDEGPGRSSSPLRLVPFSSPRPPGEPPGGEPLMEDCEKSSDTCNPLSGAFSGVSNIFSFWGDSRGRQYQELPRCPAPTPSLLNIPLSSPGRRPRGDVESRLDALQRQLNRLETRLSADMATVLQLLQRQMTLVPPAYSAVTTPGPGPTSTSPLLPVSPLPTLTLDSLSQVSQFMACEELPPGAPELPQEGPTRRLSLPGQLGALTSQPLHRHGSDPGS
Chain of CYP2D6 (P10635 whole entry): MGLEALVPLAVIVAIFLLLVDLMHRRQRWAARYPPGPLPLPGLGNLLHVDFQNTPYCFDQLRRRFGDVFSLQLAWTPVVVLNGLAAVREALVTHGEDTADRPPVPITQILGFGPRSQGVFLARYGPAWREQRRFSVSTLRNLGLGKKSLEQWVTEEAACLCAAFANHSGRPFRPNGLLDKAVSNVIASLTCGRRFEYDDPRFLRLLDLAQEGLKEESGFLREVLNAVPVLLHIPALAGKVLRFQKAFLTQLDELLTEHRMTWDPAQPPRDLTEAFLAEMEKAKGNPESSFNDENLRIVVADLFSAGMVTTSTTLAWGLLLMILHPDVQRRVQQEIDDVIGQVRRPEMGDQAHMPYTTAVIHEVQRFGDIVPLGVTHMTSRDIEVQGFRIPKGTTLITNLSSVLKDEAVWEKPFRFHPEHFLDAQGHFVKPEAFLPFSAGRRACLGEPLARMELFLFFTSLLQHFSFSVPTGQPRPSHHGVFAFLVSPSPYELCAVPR
Chain of CYP1A2 (P05177 whole entry): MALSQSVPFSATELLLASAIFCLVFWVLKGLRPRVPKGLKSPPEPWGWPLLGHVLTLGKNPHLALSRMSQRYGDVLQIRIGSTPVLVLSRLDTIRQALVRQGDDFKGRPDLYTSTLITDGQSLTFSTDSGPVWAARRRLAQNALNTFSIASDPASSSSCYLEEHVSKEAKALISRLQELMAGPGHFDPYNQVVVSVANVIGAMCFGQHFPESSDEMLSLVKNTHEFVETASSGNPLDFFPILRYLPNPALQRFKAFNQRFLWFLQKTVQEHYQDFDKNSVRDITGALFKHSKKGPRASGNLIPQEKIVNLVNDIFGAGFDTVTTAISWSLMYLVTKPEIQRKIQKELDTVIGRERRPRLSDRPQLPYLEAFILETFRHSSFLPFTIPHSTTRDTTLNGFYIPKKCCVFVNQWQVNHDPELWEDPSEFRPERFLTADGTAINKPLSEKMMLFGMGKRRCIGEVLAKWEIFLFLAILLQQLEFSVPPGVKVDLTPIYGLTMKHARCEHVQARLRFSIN
Chain of Cytochrome P450 1A2 (P05177 whole entry): as above
Chain of CYP2C9 (P11712 whole entry): as the sequence (P11712 whole entry) above
Chain of Polyunsaturated fatty acid 5-lipoxygenase (Homo sapiens) (P09917 whole entry): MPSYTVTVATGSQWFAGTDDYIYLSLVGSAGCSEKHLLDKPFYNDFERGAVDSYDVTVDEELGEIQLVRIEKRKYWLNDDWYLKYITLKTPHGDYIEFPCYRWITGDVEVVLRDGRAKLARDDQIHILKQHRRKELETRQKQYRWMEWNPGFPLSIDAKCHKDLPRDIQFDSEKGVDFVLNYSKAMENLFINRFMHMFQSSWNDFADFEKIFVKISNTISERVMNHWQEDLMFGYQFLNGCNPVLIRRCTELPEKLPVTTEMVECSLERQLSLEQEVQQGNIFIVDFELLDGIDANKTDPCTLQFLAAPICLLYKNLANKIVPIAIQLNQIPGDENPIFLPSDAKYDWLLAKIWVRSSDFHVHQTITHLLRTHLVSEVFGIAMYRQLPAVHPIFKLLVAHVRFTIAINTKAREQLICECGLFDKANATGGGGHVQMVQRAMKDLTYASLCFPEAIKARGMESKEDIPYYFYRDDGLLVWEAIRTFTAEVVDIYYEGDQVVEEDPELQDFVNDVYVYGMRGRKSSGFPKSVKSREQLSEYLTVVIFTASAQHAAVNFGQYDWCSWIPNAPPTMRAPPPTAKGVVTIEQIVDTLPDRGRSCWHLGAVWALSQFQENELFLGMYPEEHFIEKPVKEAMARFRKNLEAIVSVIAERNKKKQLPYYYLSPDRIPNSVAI

What is called IC50 is the concentration at which inhibition is half-maximal. A low value points to greater potency. Turning to `O=C(Nc1cnc2ccccc2c1)c1cn[nH]n1`, the half-inhibitory concentration (IC50) in series [1] came to 1020 nM.
With `O=C(Nc1cccnc1)c1ccn[nH]1`, the IC50 entry in [2] was “Not Active”.
`O=C(Nc1ccc(F)cc1Cl)c1n[nH]cc1-c1ccccc1`: the IC50 entry in [2] was “Not Active”.
`O=C(Nc1ccc(F)cn1)c1cn[nH]n1`: the IC50 in series [1] worked out at 3110 nM; in series [3] it was 3970 nM.
Take `CS(=O)(=O)Nc1cc(C(=O)Nc2ccc(F)cc2Cl)n[nH]1`: the IC50 entry in series [2] was “Not Active”.
On to `O=C(Nc1ccccc1Cl)c1cn[nH]n1`, for which the figures for the half-inhibitory concentration (IC50) in [1] and in series [3] were 392 nM and 6980 nM, respectively.
As to `c1ccc2oc(-c3cc[nH]n3)nc2c1`, the IC50 in series [1] turned out to be 638 nM; in series [3], 3270 nM.
Regarding `O=C(Nc1ccc(F)cc1Cl)c1cc([N+](=O)[O-])[nH]n1`, the IC50 is 3290 nM in series [1] and “Not Active” in series [4].
In series [1], `O=C(Nc1ccc(F)cc1)c1cc[nH]n1` registered a concentration for half-maximal inhibition (IC50) of 270 nM. In other words, the sub-micromolar range.
In the case of `O=C(Nc1ccc(F)cc1)c1cn[nH]n1`, the IC50 in series [1] was determined as 2430 nM; in series [3] it was 947 nM.
Consider `CS(=O)(=O)Nc1c[nH]nc1C(=O)Nc1ccc(F)cc1Cl`, for which the IC50 result in series [2] is listed as “Not Active”.
In the case of `O=C(Nc1ccccn1)c1cc[nH]n1`, the 50% inhibitory concentration (IC50) in series [1] stood at 3410 nM; in series [3], 1210 nM.
Consider `Cc1c(C(=O)Nc2ccc(F)cc2Cl)n[nH]c1[Si](C)(C)C`, for which the 50% inhibitory concentration (IC50) was found to be 1330 nM in [1] and 672 nM in series [3].
In general, inhibition refers to how much of the control response was suppressed. One may read the microsomal CLint as a measure of how fast metabolising enzymes remove a compound, apart from limits set by blood flow. High values mean faster metabolism, low ones greater metabolic stability. For orientation: solubility means how much of the substance goes into solution per volume. In general, half-life refers to the time needed for the level to fall by half in the phase considered. Read a low half-life as rapid decline. Consider `O=C(Nc1ccc(F)cn1)c1cc[nH]n1`, for which the inhibition in series [5] and in series [6] was below 50% each time. For the same compound, in series [7], the 50% inhibitory concentration (IC50) result was “Not Active”. The inhibition entry in series [8] and in [17] was “inactive” in each case. Moreover, the fraction unbound in series [9] is 0.071. The Activity entry in series [10] is on record as “Non-toxic”. Also, the “inhibition (INH)” value in series [11] and in [12] was “Not Active” each time. This compound registered a microsomal CLint in series [13] of 17 µL/min/mg. In series [14], this compound returned a solubility of 3.4 µg/mL (≈ 16.5 µM). In series [15], the permeability result is “permeable”. Also, the inhibition at 10 µM came to 9% in [16], 6% in series [19], 26% in series [20] and 45% in series [21]. Further, the half-life in series [18] is 36 min.
On to `Nc1cc(C(=O)Nc2ccc(F)cc2Cl)n[nH]1`, for which the half-maximal inhibitory concentration (IC50) in series [1] stood at 334 nM; in series [3], 5980 nM.
As to `O=C(Nc1ccc(F)cc1Cl)c1n[nH]cc1[N+](=O)[O-]`, the half-inhibitory concentration (IC50) came out at 616 nM in [1] and 5900 nM in [3].
Turning to `Clc1ccc2nc(-c3n[nH]c(Cl)c3Cl)oc2c1`, the results for the half-inhibitory concentration (IC50) in series [1] and in series [3] were 34 nM and 2 nM, respectively.
For `O=C(Nc1ccc2ccccc2n1)c1cc[nH]n1`, the IC50 in series [1] is 92 nM; in [22], “Not Active”; in series [3], 180 nM; in series [23] it was “Not Active”. Also, the inhibition in series [8] came to 9%. For the same compound, in [9], the fraction unbound was 0.072. Besides, the Activity result in series [10] was “Non-toxic”. Besides, the “inhibition (INH)” value is “Not Active” in series [12], “Not Active” in series [25], “Not Active” in [26] and 75% in series [28]. The microsomal CLint in series [13] came to 7 µL/min/mg. Besides, the solubility in [14] came to 10.1 µg/mL (≈ 42.4 µM); in series [24], 573 µg/mL (≈ 2410 µM); in series [27], 10.1 µg/mL (≈ 42.4 µM). Also, the permeability result in series [15] was “permeable”. The inhibition entry in series [17] is “inactive”. For the same compound, the half-life in [18] is above 100 min.
Take `O=C(NCc1ccccc1)c1cc[nH]n1`: the IC50 entry in series [4] was “Not Active”.
Turning to `O=C(Nc1ccncc1)c1cc[nH]n1`, the IC50 entry in series [2] is “Not Active”.
With `CN(C(=O)c1cc[nH]n1)c1ccccc1Cl`, the IC50 entry in series [2] and in series [4] was “Not Active” in each case.
